# Patent US20230184743A1, “SCREENING METHODS TO IDENTIFY SMALL MOLECULE COMPOUNDS THAT PROMOTE OR INHIBIT THE GROWTH OF CIRCULATING TUMOR CELLS, AND USES THEREOF” (University of Southern California, priority 2020, published 2023)
# “Also recorded” adds a separate entry of the source.
# Legend:
# Assay type in all cases: cell-based, human
# single BRx68 cells = assay: Single CTC proliferation over 24 days (AUC), BRx68 line; conditions: two batches, 200 μM-300 μM NAC, 24 days
# Experimental: Cell culture. CTC lines were previously derived from metastatic breast cancer patients. CTC lines were cultured in ultra-low attachment plates with RPMI 1640 medium, supplemented with EGF (20 ng/mL), bFGF (20 ng/mL), 1×B27 and 1× antibiotic/antimycotic, in 4% 02 and 5% CO2. Single CTCs were cultured in GravityTRAP™ ULA 96 well Plates (PerkinElmer). Wells on the edges of the plates were not used to avoid influence from evaporation. Media with fresh compounds were exchanged every 3 days by inserting pipet tips onto the platform of the wells to prevent accidentally aspirating suspended CTCs at the bottom. CTC numbers were counted manually under an inverted microscope every 6 days.
# FACS sorting. […]
# Statistical analysis. […] AUC was calculated for each well in each batch, by plotting days in the x-axis and the corresponding number of cells in the y-axis, then drawing a line to connect the number of cells from the starting count day to the next count day until the end day, and finally calculating the area under this line as the sum of areas of trapezoids. […] Statistical tests were performed using R. For absolute number of cells quantification, total number of cells at end of experiment in each well in each batch was compared between treated cells and untreated control and significance was analyzed with Student t test. […]
# [1] = system: Glutathione (GSH) in BRx68 cells; assay: Glutathione measurement; conditions: 300 μmol/L NAC
# Experimental: Glutathione measurement. A total of 1×10^6 BRx68 cells were cultured with or without 300 μmol/L NAC for 6 or 13 days. At the end of incubation periods, cells were washed in ice cold PBS, lysed in 5% 5-sulfo-salicylic acid dehydrate by vortexing and repeating cycles of freeze-thaw, then centrifuged at 14,000 rpm for 10 minutes and supernatant was transferred to clean tubes. Glutathione (GSH) was measured using a GSH Colorimetric Detection Kit (Invitrogen) following the manufacturer's instructions.
# [2] = system: single CTCs from a patient with breast cancer; assay: Culture of freshly isolated single CTCs from patients with breast cancer in NAC containing media; conditions: clones dying after 2 weeks in regular media
# Experimental: Patient samples. Ten milliliters of blood was collected from each of a total of 12 patients with breast cancer (stage IV). All experiments were performed following the ethical principles. Informed consents were signed by all patients and/or their legal guardian/s.
# Isolation of single CTCs. Single CTCs were detected and retrieved using the negative selection protocol of PIC&RUN assay. Briefly, 7.5 mL of blood was added to each AccuCyte Separation Tube (RareCyte) and tubes were centrifuged twice in a special device to collect buffy coats in 1 mL of CTC media. Buffy coats were stained with a cocktail of immune cell markers (IM) antibodies (CD45, CD14, and CD16) and Cell-Tracker green for 30 min at 37° C. Stained buffy coats were seeded on polyhema coated cyteslides and scanned semi-automatically using RareCyte fluorescence. When a CTC was detected, the Rarecyte ceramic tip needle was operated semi-automatically to pick up the cell of interest in a draw volume of 50 nL to 0.5 μL, and deposit it in a PCR tube contains 50 μL of media. PCR tubes were pulse spun, their contents were moved to a well of a 96-well GravityTRAP ultralow plate (InSphero) and plates were incubated at 37° C., 5% CO2 and 4% 02 for 3 weeks. Media was replaced every 3 to 4 days and cells were checked every week.
# NAC rescued the proliferation of freshly isolated CTCs from a patient with breast cancer. […]
compound,measurement,setting,value
"CC(=O)N[C@@H](CS)C(=O)O [NAC, N-acetyl-L-cysteine]",single CTC proliferation at various NAC concentrations,single BRx68 cells,most significant effect in promoting single CTC proliferation
same,total GSH level in NAC treated cells vs untreated control cells,[1]; day 6,44.42±5.165
same,total GSH level in NAC treated cells vs untreated control cells,[1]; day 13,not at day 13
same,proliferation of freshly isolated patient CTC clone after switch to NAC containing media,[2],rescued a CTC clone; also recorded: recovered and resumed proliferation
